Source: PubChem BioAssay (NCI)
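GI50 is the concentration that inhibits growth by half. TGI: concentration producing complete growth inhibition.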

Tests used:
Assay in all cases: growth of human tumour cells (NCI), 384-well format
K-562 leukemia = tested on: K-562 leukemia
NCI-H23 lung = tested on: NCI-H23 lung
UACC-257 melanoma = tested on: UACC-257 melanoma
CAKI-1 renal = tested on: CAKI-1 renal
SF-295 CNS = tested on: SF-295 CNS
TK-10 renal = tested on: TK-10 renal
HOP-92 NSCLC = tested on: HOP-92 NSCLC
MALME-3M melanoma = tested on: MALME-3M melanoma
HCT-116 colon = tested on: HCT-116 colon
NCI-H226 lung = tested on: NCI-H226 lung
COLO 205 colon = tested on: COLO 205 colon
HS 578T breast = tested on: HS 578T breast
SW-620 colon = tested on: SW-620 colon

## C=CC(=O)Nc1cc(C)ccc1Nc1nc(Nc2cc(OC)ncc2C)ncc1C(F)(F)F
K-562 leukemia
  GI50: 1520 nM
  TGI: > 100 µM
NCI-H23 lung
  GI50: 192 nM
  TGI: 661 nM
UACC-257 melanoma
  GI50: 117 nM
  TGI: 390 nM
CAKI-1 renal
  GI50: 401 nM
  TGI: 1440 nM
SF-295 CNS
  GI50: 3.61 µM
  TGI: > 100 µM
TK-10 renal
  GI50: 328 nM
  TGI: 884 nM
HOP-92 NSCLC
  GI50: 282 nM
  TGI: 700 nM
MALME-3M melanoma
  GI50: 16.1 nM
  TGI: 65.8 nM
HCT-116 colon
  GI50: 206 nM
  TGI: 562 nM
NCI-H226 lung
  GI50: 228 nM
  TGI: 1810 nM
COLO 205 colon
  GI50: 75.3 nM
  TGI: 1120 nM
HS 578T breast
  GI50: 429 nM
  TGI: 1850 nM
SW-620 colon
  GI50: 405 nM
  TGI: 1680 nM
